We go through 3 molecules from patent publication US20250197368A1 (priority 2020, published 2025).

For this experiment, the system named is human α2β3γ2 GABAARs. In words: In vitro electrophysiological recording assay (automated patch-clamp), α2-GABAAR relative efficacy. Format: cell-based. To be noted: % efficacy normalised to diazepam; GABA EC10-20; concentration generally >= 100 times Ki. An outline of the steps: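 Relative efficacy is % enhancement of the leak-subtracted GABA EC10-20 peak current, divided by the separately measured diazepam value; compound generally tested at ≥100× Ki after ≥1 min pre-application. Recordings at room temperature, human receptors stably expressed in L(tk^−) (QPatch, −65 mV) or HEK293 (SyncroPatch, −80 mV) cells.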
On the technique in general: In patch-clamp work, channel activity is measured electrically.
For `CCCNC(=O)c1c(N)c2cccc(-c3cnccc3OC)c2[nH]c1=O` [Example 17, 4-Amino-8-(4-methoxy-3-pyridyl)-2-oxo-N-propyl-1H-quinoline-3-carboxamide], the “α2-GABAAR Relative Efficacy (vs. Diazepam)” value (“α2-GABAAR Relative Efficacy” below) was found to be 0.33. Consider `CCCNC(=O)c1c(N)c2cccc(-c3cnc(C)cc3OC)c2[nH]c1=O` [Example 18, 4-Amino-8-(4-methoxy-6-methyl-3-pyridyl)-2-oxo-N-propyl-1H-quinoline-3-carboxamide], for which the “α2-GABAAR Relative Efficacy” value was 0.29. `CCCNC(=O)c1c(N)c2cccc(-c3nc(C)ncc3F)c2[nH]c1=O` [Example 40, 4-Amino-8-(5-fluoro-2-methyl-pyrimidin-4-yl)-2-oxo-N-propyl-1H-quinoline-3-carboxamide]: the “α2-GABAAR Relative Efficacy” value turned out to be 0.29.
